Values of other authors as cited in publication PMC6241861 (International Journal of Nanomedicine, 2018).

How the values were obtained:
[1] = target: T1, human neutrophil elastase (Homo sapiens, UniProt P08246)
T1 sequence (P08246 30-267): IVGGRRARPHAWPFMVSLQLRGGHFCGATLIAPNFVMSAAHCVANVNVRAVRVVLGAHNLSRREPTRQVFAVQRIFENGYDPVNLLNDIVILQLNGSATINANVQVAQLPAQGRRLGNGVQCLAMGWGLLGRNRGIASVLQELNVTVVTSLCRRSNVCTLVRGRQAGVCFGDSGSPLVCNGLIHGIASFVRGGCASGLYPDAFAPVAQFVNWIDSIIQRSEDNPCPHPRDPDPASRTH

[2] = target: Pseudomonas aeruginosa elastase (Pseudomonas aeruginosa, UniProt P14756)
Chain of Pseudomonas aeruginosa elastase (P14756 198-498): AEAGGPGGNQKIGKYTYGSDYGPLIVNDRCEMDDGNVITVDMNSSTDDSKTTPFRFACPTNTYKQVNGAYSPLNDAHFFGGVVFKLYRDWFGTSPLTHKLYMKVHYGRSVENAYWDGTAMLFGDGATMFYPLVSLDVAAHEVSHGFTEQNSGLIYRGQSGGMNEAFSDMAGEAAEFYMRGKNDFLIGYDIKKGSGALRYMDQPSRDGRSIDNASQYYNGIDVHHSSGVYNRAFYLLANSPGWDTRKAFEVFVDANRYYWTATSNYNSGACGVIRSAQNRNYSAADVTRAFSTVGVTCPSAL

LL37
Degradation by leukocyte elastase [HNE] [1]: degraded | Degradation by P. aeruginosa elastase [PE] [2]: degraded
